Laboratory results from US20260028352A1, “MACROCYCLIC IMIDAZO [1,2-B] PYRIDAZINE DERIVATIVE, PREPARATION METHOD THEREFOR, AND USE THEREOF” (SUZHOU LANGRUI BIOPHARMACEUTICAL CO., LTD., priority 2022, published 2026).

Assays:
[1] = molecular target: TRKA^F589L kinase (Homo sapiens (Human), UniProt P04629, F589L); test: Inhibitory activity against TRKA(F589L) kinase (Caliper mobility shift); type: biochemical; conditions: in vitro kinase assay
Method: (§1) Kinase Assay Process: 1× Kinase buffer was prepared. […] The compounds were serially diluted into 10 concentrations ([…], 0.15, and 0.05 nM) using a Precision 3-fold dilution method. By using the Echo550 liquid handler, 250 nL of the 100-fold final concentration compound was transferred to an OptiPlate-384F plate. a 2.5× final concentration kinase solution was prepared using 1× Kinase buffer. 10 μL of the 2.5× final concentration kinase solution was added to the compound wells and the positive control wells, and 10 μL of 1× Kinase buffer was added to the negative control wells. The plate was centrifuged at 1000 rpm for 30 seconds, vortexed for mixing, and then incubated at room temperature for 10 minutes. A mixture of 5/3× final concentration of ATP and Kinase Substrate 22 was prepared using 1× Kinase buffer. 15 μL of the mixture of the 5/3× final concentration ATP and the substrate was added to initiate the reaction, the 384-well plate was centrifuged at 1000 rpm for 30 seconds, vortexed for mixing, and incubated at room temperature for the required time. 30 μL of the termination solution was added to stop the kinase reaction, the plate was centrifuged at 1000 rpm for 30 seconds, and vortexed for mixing. The conversion rate was measured using the Caliper EZ Reader.
(§2) Data Analysis: the inhibition rate was calculated as follows:
(§3) % Inhibition=(Conversion %_max−conversion %_sample)÷(Conversion %_max−conversion %_min)×100
(§4) Conversion %_sample is the conversion rate reading for the sample; Conversion %_min is the average value of the negative control wells, representing the conversion rate for wells without enzyme activity: Conversion %_max is the average value of the positive control wells, representing the conversion rate for wells without compound inhibition. A dose-response curve was fitted using the log concentration of the compound as the X-axis and the percentage inhibition as the Y-axis. The log(inhibitor) vs. response-variable slope of the GraphPad Prism 5 software was used to fit the dose-response curve, and the IC50 value for each compound was obtained. The calculation formula is:
(§5) Y=Bottom+(Top−Bottom)/(1+10^((Log IC50−X)*HillSlope)).
(§6) wherein X represents the concentration of the compound to be tested; Y represents the inhibition rate at the concentration X: Top refers to the maximum response: Bottom refers to the baseline response; HillSlope refers to the slope of the curve (i.e., the gradient).

[2] = system: Ba/F3-TPM3-NTRK1-G667C cells; test: Growth inhibition of Ba/F3-TPM3-NTRK1-G667C cells (Cell Titer-Glo); type: cell-based; conditions: 72 hours, CTG; read-out: inhibitory activity IC50 Ba/F3-TPM3-NTRK1-G667C
How it was run: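 Ba/F3 cells were exposed for 72 hours to serially DMSO-diluted compound at a top final concentration of 10 μM. Viability was read by Cell Titer-Glo luminescence after the plate equilibrated 30 min at room temperature and was then shaken 1 hour in the dark at room temperature.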

[3] = molecular target: TRKA^WT kinase (Homo sapiens (Human), UniProt P04629); test: Inhibitory activity against TRKA WT kinase (Caliper mobility shift); type: biochemical; conditions: in vitro kinase assay
Method: as §1, §2, §3, §4, §5, §6

[4] = system: Ba/F3-TPM3-NTRK1-WT cells; test: Growth inhibition of Ba/F3-TPM3-NTRK1-WT cells (Cell Titer-Glo); type: cell-based; conditions: 72 hours, CTG; read-out: inhibitory activity IC50 Ba/F3-TPM3-NTRK1-WT
Method: (§7) Then the solutions were subjected to a gradient dilution with DMSO: a clean, sterile V-bottom 96-well microplate was placed in the biological safety cabinet. First, 4 μL of DMSO was added to well B2 and 10 μL of DMSO was added to wells B3-B11 respectively; Next, 6 μL of the 10 mM solution was added to well B2. The microplate was pipetted up and down 10 times for mixing. […] Mixing was performed by pipetting up and down 10 times. The solution was diluted in order until well B10. only DMSO was added to well B11 (no compound).
(§8) 6× Compound Solution Preparation (6-fold dilution, × represents dilution factor): (Initial final concentration: 10 μM), a clean, sterile V-bottom 96-well microplate was placed in the biological safety cabinet. 99 μL of cell culture medium was added to each well from B2 to G11. By using a 12-channel pipettor, 1 μL of the compound solution prepared in the previous step was added into the corresponding wells. The solutions were pipetted up and down 10 times to mix the solutions. The highest concentration of compound in this step was 60 μM.
(§9) Treatment of Cells: the above-prepared cell culture plate was taken out of the incubator. 20 μL of compound solution from each well was added to the corresponding cell culture wells. The lowest pipetting speed was used and touching the bottom of the plate was avoided. The culture plate was gently shaked to mix the compound solution, then the plate was returned to the incubator for further culture for 72 hours.
(§10) The highest treatment concentration of the compound was 10 μM. After 72 hours of treatment, the Cell Titer-Glo (CTG) assay was performed. First, the cell culture plate was removed from the CO2 incubator and allowed to stand at room temperature for 30 minutes to ensure uniform temperature of the plate. The pre-prepared Cell Titer-Glo reagent (following the manufacturer's instructions) was taken and allowed to stand at room temperature to thaw. 60 μL of Cell Titer-Glo reagent was added to each well containing cells. The cells were incubated on a horizontal shaker in a dark place at 225 rpm for 1 hour at room temperature. Then, a Tecan Spark microplate reader was used to read the plate using chemiluminescence according to the manufacturer's instructions.

[5] = system: Ba/F3-TPM3-NTRK1-G595R cells; test: Growth inhibition of Ba/F3-TPM3-NTRK1-G595R cells (Cell Titer-Glo); type: cell-based; conditions: 72 hours, CTG; read-out: inhibitory activity IC50 Ba/F3-TPM3-NTRK1-G595R
Method: as §7, §8, §9, §10

TRKA^WT kinase, sequence (P04629 33-796): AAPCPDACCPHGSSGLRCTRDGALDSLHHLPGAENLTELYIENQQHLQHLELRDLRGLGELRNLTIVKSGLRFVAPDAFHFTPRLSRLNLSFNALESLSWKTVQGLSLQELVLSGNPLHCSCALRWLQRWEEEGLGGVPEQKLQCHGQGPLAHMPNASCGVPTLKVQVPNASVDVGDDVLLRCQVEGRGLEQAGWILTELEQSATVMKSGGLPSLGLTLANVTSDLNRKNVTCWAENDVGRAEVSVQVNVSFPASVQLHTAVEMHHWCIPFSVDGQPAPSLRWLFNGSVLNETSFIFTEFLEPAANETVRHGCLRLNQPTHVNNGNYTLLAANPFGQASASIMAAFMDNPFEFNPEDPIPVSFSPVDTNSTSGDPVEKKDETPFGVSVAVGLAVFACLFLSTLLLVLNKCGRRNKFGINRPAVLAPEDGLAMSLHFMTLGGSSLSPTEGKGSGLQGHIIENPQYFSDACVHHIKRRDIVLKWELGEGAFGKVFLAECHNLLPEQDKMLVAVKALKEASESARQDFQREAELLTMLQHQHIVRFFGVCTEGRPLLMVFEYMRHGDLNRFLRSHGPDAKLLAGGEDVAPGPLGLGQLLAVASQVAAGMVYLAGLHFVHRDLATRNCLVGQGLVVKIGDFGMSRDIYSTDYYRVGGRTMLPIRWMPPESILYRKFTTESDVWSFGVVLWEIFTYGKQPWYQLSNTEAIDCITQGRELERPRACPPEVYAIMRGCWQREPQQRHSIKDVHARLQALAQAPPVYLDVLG
TRKA^F589L kinase, sequence (P04629 33-796 F589L): as the sequence (P04629 33-796) above, with F557L counted along it

With `C[C@H]1Nc2ccc3ncc(n3n2)-c2cc(ccn2)COc2ccc(F)cc21` [Example I-14, (R)-(E)-5^4-fluoro-6-methyl-4-oxa-7-aza-1(3,6)-imidazo[1,2-b]pyridazina-2(2,4)-pyridina-5(1,2)-benzenacycloheptaphane] the IC50 [1] was less than 5 nM, the IC50 [2] was less than 100 nM and the IC50 [3] was less than 3 nM.

`C[C@H]1Nc2ccc3ncc(n3n2)-c2cc(ccn2)COc2c(F)cc(F)cc21` [Example I-16, (R)-(E)-5^4,5^6-difluoro-6-methyl-4-oxa-7-aza-1(3,6)-imidazo[1,2-b]pyridazine-2(2,4)-pyridina-5(1,2)-benzenacycloheptaphane] gave an IC50 [1] of less than 5 nM, an IC50 [2] of less than 100 nM and an IC50 [3] of less than 3 nM.

Molecule `C[C@H]1Nc2ccc3ncc(n3n2)-c2cc(ccn2)COc2ccccc21` [Example I-18, (R)-(E)-6-methyl-4-oxa-7-aza-1(3,6)-imidazo[1,2-b]pyridazine-2(2,4)-pyridina-5(1,2)-benzenacycloheptaphane] has an IC50 [1] of less than 5 nM, an IC50 [2] of less than 100 nM and an IC50 [3] of less than 3 nM.

For `C[C@H]1Nc2ccc3ncc(n3n2)-c2cc(ccn2)COc2ncccc21` [Example I-20, (R)-(E)-6-methyl-4-oxa-7-aza-1(3,6)-imidazo[1,2-b]pyridazina-2(2,4), 5(2,3)-dipyridinacycloheptaphane], the IC50 [1] was less than 5 nM, the IC50 [2] was less than 100 nM and the IC50 [3] was less than 3 nM.

For `C[C@H]1Nc2ccc3ncc(n3n2)-c2cncc(c2)COc2ccc(F)cc21` [Example I-22, (R)-(E)-5^4-fluoro-6-methyl-4-oxa-7-aza-1(3,6)-imidazo[1,2-b]pyridazina-2(3,5)-pyridina-5(1,2)-benzenacycloheptaphane], the IC50 [1] was less than 5 nM, the IC50 [2] was less than 100 nM and the IC50 [3] was less than 3 nM.

Work on `C[C@H]1Nc2ccc3ncc(n3n2)-c2cc(ccn2)OCc2ncc(F)cc21` [Example I-24, (R)-(E)-5^5-fluoro-6-methyl-3-oxa-7-aza-1(3,6)-imidazo[1,2-b]pyridazina-2(2,4), 5(2,3)-dipyridinacycloheptaphane] yielded an IC50 [1] of less than 5 nM, an IC50 [2] of less than 100 nM and an IC50 [3] of less than 3 nM.

For `C[C@H]1Nc2ccc3ncc(n3n2)-c2cc(ncn2)COc2ccccc21` [Example I-26, (R)-(E)-6-methyl-4-oxa-7-aza-1(3,6)-imidazo[1,2-b]pyridazina-2(4,6)-pyrimidina-5(1,2)-benzenacycloheptaphane], the IC50 [1] was less than 5 nM, the IC50 [2] was less than 100 nM and the IC50 [3] was less than 3 nM.

In the case of `C[C@H]1Nc2ccc3ncc(n3n2)-c2cc(ccn2)CCOc2ccccc21` [Example I-28, (4R,E)-4-methyl-6-oxa-3-aza-2(3,6)-imidazo[1,2-b]pyridazina-1(2,4)-pyridina-5(1,2)-benzenacyclooctaphane], the IC50 [1] is reported as less than 5 nM, the IC50 [2] is reported as less than 100 nM and the IC50 [3] is reported as less than 3 nM.

In the case of `C[C@H]1Nc2ccc3ncc(n3n2)-c2cc(ccn2)OCc2ccc(F)cc21` [Example I-30, (R)-(E)-5^4-fluoro-6-methyl-3-oxa-7-aza-1(3,6)-imidazo[1,2-b]pyridazina-2(2,4)-pyridina-5(1,2)-benzenacycloheptaphane], the IC50 [1] is reported as less than 5 nM, the IC50 [2] is reported as less than 100 nM and the IC50 [3] is reported as less than 3 nM.

Molecule `Fc1ccc2c(c1)[C@H]1CCCN1c1ccc3ncc(n3n1)-c1cc(ccn1)CO2` [Example I-49, (14bR,E)-13-fluoro-14b,15,16,17-tetrahydro-9H-1,19-etheno-4,8-(metheno)benzo[b]imidazo[1,5-h]pyrrolo[2,1-d][1]oxa[5,7,8,11]tetraazacyclopentadecine] has an IC50 [1] of less than 5 nM, an IC50 [2] of less than 100 nM and an IC50 [3] of less than 3 nM.

Molecule `Fc1cnc2c(c1)[C@H]1C[C@H](F)CN1c1ccc3ncc(n3n1)-c1cc(cnn1)CO2` [Example I-68, (14bR,16S,E)-13,16-difluoro-14b,15,16,17-tetrahydro-9H-1,19-etheno-4,8-(metheno)imidazo[5,1-h]pyrido[3,2-n]pyrrolo[1,2-l][1]oxa[5,6,9,10,12]pentaazacyclopentadecine] has an IC50 [2] of 2.8 nM, an IC50 [4] of 0.06 nM and an IC50 [5] of 1.6 nM.

`Fc1ccc2c(c1)[C@H]1C[C@H](F)CN1c1ccc3ncc(n3n1)-c1cc(ncn1)CCO2` [Example I-70, (3^2R,3^4S,E)-3^4,4^5-difluoro-5-oxa-2(3,6)-imidazo[1,2-b]pyridazina-1(4,6)-pyrimidina-3(1,2)-pyrrolidina-4(1,2)-benzenacycloheptaphane] was tested, and the IC50 [2] was 4.6 nM, the IC50 [4] was 0.12 nM and the IC50 [5] was 1.1 nM.

With `Fc1cnc2c(c1)[C@H]1C[C@H](F)CN1c1ccc3ncc(n3n1)-c1cc(ncn1)CCO2` [Example I-72, (3^2R,3^4S,E)-3^4,4^5-difluoro-5-oxa-2(3,6)-imidazo[1,2-b]pyridazina-1(4,6)-pyrimidina-4(3,2)-pyridina-3(1,2)-pyrrolidinacycloheptaphane] the IC50 [2] was 7.4 nM, the IC50 [4] was 0.07 nM and the IC50 [5] was 1.5 nM.

For `Fc1ccc2c(c1)[C@H]1C[C@H](F)CN1c1ccc3ncc(n3n1)-c1nccc(n1)CCO2` [Example I-86, (3^2R,3^4S,E)-3^4,4^5-difluoro-5-oxa-2(3,6)-imidazo[1,2-b]pyridazina-1(2,4)-pyrimidina-3(1,2)-pyrrolidina-4(1,2)-benzenacycloheptaphane], the IC50 [2] was 13.9 nM, the IC50 [4] was 0.25 nM and the IC50 [5] was 2.3 nM.

`Fc1ccc2c(c1)[C@H]1C[C@H](F)CN1c1ccc3ncc(n3n1)-c1cc(cnn1)CCO2` [Example I-92, (3^2R,3^4S,E)-3^4,4^5-difluoro-5-oxa-2(3,6)-imidazo[1,2-b]pyridazina-1(3,5)-pyridazina-3(1,2)-pyrrolidina-4(1,2)-benzenacycloheptaphane] showed an IC50 [2] of 4.3 nM, an IC50 [4] of 0.18 nM and an IC50 [5] of 0.6 nM.

With `Fc1cnc2c(c1)[C@H]1C[C@H](F)CN1c1ccc3ncc(n3n1)-c1cc(cnn1)CCO2` [Example I-94, (3^2R,3^4S,E)-3^4,4^5-difluoro-5-oxa-2(3,6)-imidazo[1,2-b]pyridazina-1(3,5)-pyridazina-4(3,2)-pyridina-3(1,2)-pyrrolidinacycloheptaphane] the IC50 [2] was 2.5 nM, the IC50 [4] was 0.09 nM and the IC50 [5] was 1 nM.

`C[C@H]1Cc2ccnc(n2)-c2cnc3ccc(nn23)N2C[C@@H](F)C[C@@H]2c2cc(F)cnc2O1` [Example I-96, (3^2R,3^4S,6S,E)-3^4,4^5-difluoro-6-methyl-5-oxa-2(3,6)-imidazo[1,2-b]pyridazina-1(2,4)-pyrimidina-4(3,2)-pyridina-3(1,2)-pyrrolidinacycloheptaphane] showed an IC50 [2] of 3.7 nM, an IC50 [4] of 0.11 nM and an IC50 [5] of 1.4 nM.

`C[C@@H]1CCc2ncc(F)cc2[C@H]2CCCN2c2ccn3ncc(c3n2)C(=O)N1` [LOXO-195, reference compound] showed an IC50 [2] of 169 nM, an IC50 [4] of 3.07 nM and an IC50 [5] of 10 nM.
